Patent US11878975B2, “Substituted indole compounds useful as TLR inhibitors” (BRISTOL-MYERS SQUIBB COMPANY, priority 2017, dated 2024)

Key:
Type in all cases: cell-based
[1] = biological target: T1, human TLR8 (Homo sapiens, UniProt Q9NR97); assay: TLR8 inhibition reporter assay (HEK-Blue cells, SEAP reporter, R848 stimulation); conditions: HEK-Blue cells overexpressing human TLR8, SEAP reporter, R848 15.9 μM
T1 construct: host or cells: HEK-Blue cells
T1 sequence (Q9NR97 27-1041): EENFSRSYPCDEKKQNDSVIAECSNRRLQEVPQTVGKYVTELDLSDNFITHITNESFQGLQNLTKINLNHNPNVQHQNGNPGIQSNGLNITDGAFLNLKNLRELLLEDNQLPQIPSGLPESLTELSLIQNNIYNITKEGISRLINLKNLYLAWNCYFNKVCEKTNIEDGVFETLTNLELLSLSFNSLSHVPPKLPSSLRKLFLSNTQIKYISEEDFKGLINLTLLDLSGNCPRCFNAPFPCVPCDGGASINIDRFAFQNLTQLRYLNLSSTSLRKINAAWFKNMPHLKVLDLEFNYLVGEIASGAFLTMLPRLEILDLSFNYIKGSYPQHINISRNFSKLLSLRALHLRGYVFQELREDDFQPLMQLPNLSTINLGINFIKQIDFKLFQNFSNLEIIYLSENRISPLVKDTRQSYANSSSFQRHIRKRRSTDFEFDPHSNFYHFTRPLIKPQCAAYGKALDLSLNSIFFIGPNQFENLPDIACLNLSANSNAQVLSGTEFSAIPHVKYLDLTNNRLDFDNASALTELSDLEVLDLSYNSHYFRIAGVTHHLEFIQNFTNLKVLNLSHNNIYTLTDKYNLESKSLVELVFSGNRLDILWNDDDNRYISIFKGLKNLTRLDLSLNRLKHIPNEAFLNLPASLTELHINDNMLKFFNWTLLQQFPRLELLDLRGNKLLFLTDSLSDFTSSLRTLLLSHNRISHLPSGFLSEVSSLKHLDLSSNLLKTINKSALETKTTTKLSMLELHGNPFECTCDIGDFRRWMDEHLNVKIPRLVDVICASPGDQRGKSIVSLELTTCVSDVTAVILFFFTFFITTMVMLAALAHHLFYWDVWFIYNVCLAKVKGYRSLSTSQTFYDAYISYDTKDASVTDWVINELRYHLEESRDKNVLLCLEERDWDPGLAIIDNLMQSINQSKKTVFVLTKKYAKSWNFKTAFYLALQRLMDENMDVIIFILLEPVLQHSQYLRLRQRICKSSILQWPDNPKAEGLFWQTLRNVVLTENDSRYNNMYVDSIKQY
Procedure, shortened: (§1)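 SEAP readout after 22 h agonist exposure at 37 °C; final agonist levels were 7.5 μM gardiquimod (TLR7), 15.9 μM R848 (TLR8) and 5 nM ODN2006 (TLR9). Inhibitors, spanning 0.05 nM to 50 μM final, were applied 30 min beforehand.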

[2] = biological target: T2, human TLR7 (Homo sapiens, UniProt Q9NYK1); assay: TLR7 inhibition reporter assay (HEK-Blue cells, SEAP reporter, gardiquimod stimulation); conditions: HEK-Blue cells overexpressing human TLR7, SEAP reporter, gardiquimod 7.5 μM
T2 construct: host or cells: HEK-Blue cells
T2 sequence (Q9NYK1 27-1049): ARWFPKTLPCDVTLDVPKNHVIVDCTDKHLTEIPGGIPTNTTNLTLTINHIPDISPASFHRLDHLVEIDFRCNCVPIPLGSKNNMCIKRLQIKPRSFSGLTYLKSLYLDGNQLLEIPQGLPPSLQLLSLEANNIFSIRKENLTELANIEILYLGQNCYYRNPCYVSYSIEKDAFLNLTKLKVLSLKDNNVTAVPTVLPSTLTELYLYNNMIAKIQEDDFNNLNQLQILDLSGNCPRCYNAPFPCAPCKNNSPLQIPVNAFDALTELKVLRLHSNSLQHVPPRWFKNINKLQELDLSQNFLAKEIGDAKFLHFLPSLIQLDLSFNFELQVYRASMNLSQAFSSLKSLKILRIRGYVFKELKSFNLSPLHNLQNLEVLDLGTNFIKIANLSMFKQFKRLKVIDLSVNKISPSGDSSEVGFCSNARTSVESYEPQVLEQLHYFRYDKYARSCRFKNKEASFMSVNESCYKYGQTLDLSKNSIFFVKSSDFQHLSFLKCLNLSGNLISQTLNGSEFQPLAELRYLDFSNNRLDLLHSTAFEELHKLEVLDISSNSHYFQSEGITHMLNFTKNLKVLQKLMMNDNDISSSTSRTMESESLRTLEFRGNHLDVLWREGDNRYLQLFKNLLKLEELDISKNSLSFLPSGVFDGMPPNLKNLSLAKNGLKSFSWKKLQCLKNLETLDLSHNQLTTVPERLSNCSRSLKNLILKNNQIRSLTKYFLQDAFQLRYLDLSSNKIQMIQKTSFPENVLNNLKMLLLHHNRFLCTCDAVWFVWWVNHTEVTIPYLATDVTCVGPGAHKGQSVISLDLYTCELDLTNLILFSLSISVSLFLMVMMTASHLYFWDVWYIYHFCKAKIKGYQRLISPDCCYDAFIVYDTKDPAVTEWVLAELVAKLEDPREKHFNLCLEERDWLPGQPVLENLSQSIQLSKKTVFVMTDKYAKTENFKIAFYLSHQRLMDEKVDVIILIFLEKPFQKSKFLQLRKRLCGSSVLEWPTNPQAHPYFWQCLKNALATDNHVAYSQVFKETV
Procedure, shortened: as §1

[3] = biological target: T3, human TLR9 (Homo sapiens, UniProt Q9NR96); assay: TLR9 inhibition reporter assay (HEK-Blue cells, SEAP reporter, ODN2006 stimulation); conditions: HEK-Blue cells overexpressing human TLR9, SEAP reporter, ODN2006 5 nM
T3 construct: host or cells: HEK-Blue cells
T3 sequence (Q9NR96 26-1032): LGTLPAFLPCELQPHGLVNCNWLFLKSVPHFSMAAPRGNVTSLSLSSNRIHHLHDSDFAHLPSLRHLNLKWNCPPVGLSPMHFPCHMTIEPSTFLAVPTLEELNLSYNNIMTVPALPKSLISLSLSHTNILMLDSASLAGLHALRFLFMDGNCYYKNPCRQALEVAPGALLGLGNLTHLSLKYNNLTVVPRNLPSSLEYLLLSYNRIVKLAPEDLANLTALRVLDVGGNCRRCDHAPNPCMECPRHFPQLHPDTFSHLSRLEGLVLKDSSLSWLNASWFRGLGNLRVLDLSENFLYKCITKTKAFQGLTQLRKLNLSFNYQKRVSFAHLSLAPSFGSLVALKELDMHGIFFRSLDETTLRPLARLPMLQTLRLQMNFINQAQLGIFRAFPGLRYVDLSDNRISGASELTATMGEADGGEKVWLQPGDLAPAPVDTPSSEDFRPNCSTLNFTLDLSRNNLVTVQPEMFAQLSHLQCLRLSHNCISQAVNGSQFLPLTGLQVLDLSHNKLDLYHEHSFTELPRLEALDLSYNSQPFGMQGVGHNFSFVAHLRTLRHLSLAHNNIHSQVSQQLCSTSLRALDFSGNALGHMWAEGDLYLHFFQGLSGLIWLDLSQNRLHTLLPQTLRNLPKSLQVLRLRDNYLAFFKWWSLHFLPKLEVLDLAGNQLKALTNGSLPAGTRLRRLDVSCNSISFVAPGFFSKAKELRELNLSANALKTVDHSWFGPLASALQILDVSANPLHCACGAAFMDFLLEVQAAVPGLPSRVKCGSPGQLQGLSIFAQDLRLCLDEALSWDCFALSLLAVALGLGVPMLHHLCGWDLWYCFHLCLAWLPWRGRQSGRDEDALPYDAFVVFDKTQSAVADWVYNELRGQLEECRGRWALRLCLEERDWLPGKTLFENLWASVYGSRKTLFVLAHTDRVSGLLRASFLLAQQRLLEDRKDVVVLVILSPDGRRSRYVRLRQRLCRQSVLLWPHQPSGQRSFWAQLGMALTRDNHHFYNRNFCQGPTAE
Procedure, shortened: as §1

| Structure (SMILES) | IC50 [1] [µM] | IC50 [2] [µM] | IC50 [3] [µM] |
| --- | --- | --- | --- |
| Cc1cc(-c2[nH]c3ccc(C4CN(CC(=O)N(C)C)C(C)(C)CO4)cc3c2C(C)C)cn2ncnc12 (single isomer, unassigned) [Example 379, 2-(2-(3-isopropyl-2-(8-methyl-[1,2,4]triazolo[1,5-a]pyridin-6-yl)-1H-indol-5-yl)-5,5-dimethylmorpholino)-N,N-dimethylacetamide] | 0.07 | 0.012 | 5.37 |
| COc1cc(-c2[nH]c3ccc(C4CCC(NCC(F)F)CC4)cc3c2C(C)C)cn2ncnc12 (single isomer, unassigned) [Example 68] | 0.0068 | 0.00085 | 11.6 |
| Cc1c(-c2[nH]c3ccc(C4CCC(NC(=O)CN(C)C)CC4)cc3c2C(C)C)cn(C)c(=O)c1C (stereo not drawn) [Example 472] | 0.0046 | 0.003 | 23.7 |
| Cc1c(-c2[nH]c3ccc(C4CC(NCC#N)C4)cc3c2C(C)C)cn2ncnc2c1C (stereo not drawn) [Example 567] | 0.0011 | 0.002 | 26.7 |
| Cc1cc(-c2[nH]c3ccc(C4CNCCO4)cc3c2C(C)C)cn2ncnc12 (stereo not drawn) [Example 281, 2-(3-isopropyl-2-(8-methyl-[1,2,4]triazolo[1,5-a]pyridin-6-yl)-1H-indol-5-yl)morpholine] | 0.0011 | 0.00038 | 4.02 |
| Cc1cc(-c2[nH]c3ccc(C4CCCN(C5CCN(C(C)C)CC5)C4)cc3c2C(C)C)cc(C)n1 (stereo not drawn) [Example 245] | 0.019 | 0.104 | 0.419 |
| Cc1c(-c2[nH]c3ccc(C4CCC(NC(=O)CN(C)C)CC4)cc3c2C(C)C)cn2ncnc2c1C (stereo not drawn) [Example 123] | 0.001 | 0.00052 | > 50 |
| CNC1CCC(c2ccc3[nH]c(-c4cn5cnnc5c(C)c4C)c(C(C)C)c3c2)CC1 (stereo not drawn) [Example 525] | 0.05 | 0.007 | 4.41 |
| Cc1c(-c2[nH]c3ccc(C4CC5CN(C6CCOC6)CC5C4)cc3c2C(C)C)cn2cnnc2c1C (stereo not drawn) [Example 562] | 0.028 | 0.004 | 3.71 |
| Cc1cc(-c2[nH]c3ccc(C4CN(CCS(C)(=O)=O)C4)cc3c2C(C)C)cn2ncnc12 [Example 264] | 0.019 | 0.003 | 8.17 |
| COc1cc(-c2[nH]c3ccc(C4CCCN(C)C4)cc3c2C(C)C)cn2ncnc12 (stereo not drawn) [Example 238] | 0.00075 | 0.00081 | 1.24 |
| COc1cc(-c2[nH]c3ccc(C4CCCN(CC(=O)N(C)C)C4)cc3c2C(C)C)cn2ncnc12 (stereo not drawn) [Example 222, 2-(3-(3-isopropyl-2-(8-methoxy-[1,2,4]triazolo[1,5-a]pyridin-6-yl)-1H-indol-5-yl)piperidin-1-yl)-N,N-dimethylacetamide] | 0.0092 | 0.002 | 3.1 |
| Cc1cc(-c2[nH]c3ccc(C4CCCN(Cc5c[nH]c(C)n5)C4)cc3c2C(C)C)cc(C)n1 (stereo not drawn) [Example 247] | 0.0069 | 0.008 | 0.116 |
| Cc1cc(-c2[nH]c3ccc(C4CCCN(C(=O)C5C(C)(C)C5(C)C)C4)cc3c2C(C)C)cc(C)n1 (stereo not drawn) [Example 198] | 1.1 | 0.384 | 23.8 |
| COc1cc(-c2[nH]c3ccc(C4CCCN(CC(N)=O)C4)cc3c2C(C)C)cn2ncnc12 (stereo not drawn) [Example 229] | 0.0081 | 0.004 | 6.38 |
| Cc1c(-c2[nH]c3ccc(CC4CN(CCS(C)(=O)=O)C4)cc3c2C(C)C)cn(C)c(=O)c1C [Example 418] | 0.007 | 0.077 | 9.21 |
| CNCC(=O)N1CCCC(c2ccc3[nH]c(-c4cn5ncnc5c(C)c4C)c(C(C)C)c3c2)C1 (stereo not drawn) [Example 213] | 0.005 | 0.003 | 6.52 |
| COc1cc(-c2[nH]c3ccc(C4CCC(N(C)C5CC5)CC4)cc3c2C(C)C)cn2ncnc12 (stereo not drawn) [Example 13] | 0.0048 | 0.001 | 2.81 |
| COc1cc(-c2[nH]c3ccc(C4CNCCO4)cc3c2C(C)C)cn2ncnc12 (stereo not drawn) [Example 284] | 0.00085 | 0.001 | 1.82 |
| Cc1c(-c2[nH]c3ccc(C4CC5CN(CC#N)CC5C4)cc3c2C(C)C)cn2cnnc2c1C (stereo not drawn) [Example 558] | 0.117 | 0.006 | 3.72 |
| CNCC(=O)N1CCOC(c2ccc3[nH]c(-c4cn5ncnc5c(C)c4C)c(C(C)C)c3c2)C1 (stereo not drawn) [Example 340] | 0.0051 | 0.002 | 4.83 |
| COc1cc(-c2[nH]c3ccc(C4CCC(N5CC(F)C5)CC4)cc3c2C(C)C)cn2ncnc12 (stereo not drawn) [Example 21] | 0.0012 | 0.00041 | 2.38 |
| COc1cc(-c2[nH]c3ccc(C4CN(C(C)C)C4)cc3c2C(C)C)cn2ncnc12 [Example 272] | 0.0021 | 0.00084 | 1.31 |
| Cc1cc(-c2[nH]c3ccc(C4CCCCC4)cc3c2C(C)C)cn(C)c1=O [Example 470] | 3.13 | 0.568 | 18.3 |
